Among the data in US12466804B2 (BRISTOL-MYERS SQUIBB COMPANY, priority 2019, dated 2025) are IC50 values, retold here.

T1 sequence (Q92633 whole entry): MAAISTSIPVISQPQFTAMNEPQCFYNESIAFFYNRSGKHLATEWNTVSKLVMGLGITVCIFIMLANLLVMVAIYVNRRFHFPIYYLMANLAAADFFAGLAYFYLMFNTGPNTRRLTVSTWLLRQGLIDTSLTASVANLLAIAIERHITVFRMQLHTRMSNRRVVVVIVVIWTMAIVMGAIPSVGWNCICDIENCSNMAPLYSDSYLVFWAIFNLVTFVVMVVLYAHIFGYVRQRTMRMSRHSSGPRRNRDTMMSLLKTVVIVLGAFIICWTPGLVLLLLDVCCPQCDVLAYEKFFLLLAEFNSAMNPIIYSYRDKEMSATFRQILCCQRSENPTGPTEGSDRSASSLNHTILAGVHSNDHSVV

The assay addresses T1, human LPA1 (Homo sapiens, UniProt Q92633).
T1 construct: expressed in transfected cells; host or cells: Chinese hamster ovary (CHO) cells
The assay is described as follows: LPA1 functional antagonist assay (LPA-induced calcium flux). The assay is classed as cell-based. As to conditions: CHO cells overexpressing human LPA1; calcium flux induced by 10 nM LPA; read-out: hLPA1 IC50. As for the experimental part:
The effectiveness of compounds of the present invention as LPA1 inhibitors can be determined in an LPA1 functional antagonist assay as follows:
The cells were then equilibrated to room temperature for 30 minutes before the assay. […] IC50 values were determined by fitting data to a 4-parameter logistic equation (GraphPad Prism, San Diego CA).
Turning to `Cc1nc(-c2nnn(C)c2NC(=O)OCC(C)C)ccc1OC[C@@H]1CC[C@H]1C(=O)O` (racemic) [Example 34, (±)-(1R,2R)-2-(((6-(5-((Isobutoxycarbonyl)amino)-1-methyl-1H-1,2,3-triazol-4-yl)-2-methylpyridin-3-yl)oxy)methyl)cyclobutane-1-carboxylic acid], the IC50 was 1190 nM.

In the case of `CCc1cc(OCc2c(-c3ccc(OC[C@@H]4CC[C@H]4C(=O)O)c(C)n3)nnn2C)ncn1` (racemic) [Example 11, (±)-(1R,2R)-2-(((6-(5-(((6-ethylpyrimidin-4-yl)oxy)methyl)-1-methyl-1H-1,2,3-triazol-4-yl)-2-methylpyridin-3-yl)oxy)methyl)cyclobutane-1-carboxylic acid], the IC50 came to 42 nM.

For the molecule `Cc1nc(-c2nnn(C)c2COc2noc(C3CC3)n2)ccc1OC[C@@H]1CC[C@H]1C(=O)O` (racemic) [Example 15, (±)-(1R,2R)-2-(((6-(5-(((5-cyclopropyl-1,2,4-oxadiazol-3-yl)oxy)methyl)-1-methyl-1H-1,2,3-triazol-4-yl)-2-methylpyridin-3-yl)oxy)methyl)cyclobutane-1-carboxylic acid], the half-inhibitory concentration (IC50) was 128 nM.

On to `Cc1nc(-c2nnn(C)c2Cn2nnc(CC3CC3)n2)ccc1OC[C@@H]1CC[C@H]1C(=O)O` (single isomer, unassigned) [Example 38], for which the IC50 amounted to 63 nM.

In the case of `Cc1nc(-c2nnn(C)c2COC(=O)N(C)C2CCCC2)ccc1OC[C@@H]1CC[C@H]1C(=O)O` (racemic) [Example 47, (±)-(1R,2R)-2-(((6-(5-(((cyclopentyl(methyl)carbamoyl)oxy)methyl)-1-methyl-1H-1,2,3-triazol-4-yl)-2-methyl-pyridin-3-yl)oxy)methyl)cyclobutane carboxylic acid], the half-inhibitory concentration (IC50) turned out to be 23 nM.

Regarding `Cc1nc(-c2nnn(C)c2CNC(=O)OCC(C)C)ccc1OC[C@@H]1CC[C@H]1C(=O)O` (racemic) [Example 41, (±)-(1R,2R)-2-(((6-(5-(((isobutoxy-carbonyl)amino)methyl)-1-methyl-1H-1,2,3-triazol-4-yl)-2-methy-lpyridin-3-yl)oxy)methyl)cyclobutanecarboxylic acid], the 50% inhibitory concentration (IC50) is 3750 nM.

As to `CN(C(=O)OCc1c(-c2ccc(OCC34CC(C(=O)O)(C3)C4)cn2)nnn1C)C1CCCC1` [Example 51, 3-(((6-(5-(((cyclopentyl(methyl)carbamoyl)oxy)methyl)-1-methyl-1H-1,2,3-triazol-4-yl)pyridin-3-yl)oxy)methyl)bicyclo[1.1.1]pentane-1-carboxylic acid], the IC50 is 417 nM.

For `Cc1noc(-c2ccc(OC[C@H]3CC[C@@H]3C(=O)O)cn2)c1CNc1nccc(-c2ccccn2)n1` (single isomer, unassigned) [Example 4], the IC50 turned out to be 14 nM.

On to `Cn1nnc(-c2ccc(OC[C@H]3CC[C@@H]3C(=O)O)cn2)c1CNc1nccc(-c2ccccn2)n1` (single isomer, unassigned) [Example 29], for which the IC50 amounted to 186 nM.

As for `Cc1noc(-c2ccc(OCC3CC(C(=O)O)C3)cc2)c1COC(=O)N(C)C1CCCC1` (stereo not shown) [Example 30, 3-((4-(4-(((Cyclopentyl(methyl)carbamoyl)oxy)methyl)-3-methylisoxazol-5-yl)phenoxy)methyl)cyclobutanecarboxylic acid], the IC50 is 316 nM.

With `Cc1nc(-c2nnn(C)c2CNc2nccc(-c3ccccc3)n2)ccc1OC[C@@H]1CC[C@H]1C(=O)O` (racemic) [Example 35, (±)-(1R,2R)-2-(((2-Methyl-6-(1-methyl-5-(((4-phenylpyrimidin-2-yl)amino)methyl)-1H-1,2,3-triazol-4-yl)pyridin-3-yl)oxy)methyl)cyclobutanecarboxylic acid], the IC50 came to 49 nM.

With `Cc1nc(-c2nnn(C)c2COC(=O)N(C)CC2CCC2)ccc1OCC12CCC(C(=O)O)(C1)C2` [Example 57, 4-(((6-(5-((((cyclobutylmethyl)(methyl)carbamoyl)oxy)methyl)-1-methyl-1H-1,2,3-triazol-4-yl)-2-methylpyridin-3-yl)oxy)methyl)bicyclo[2.1.1]hexane-1-carboxylic acid], the IC50 came to 82 nM.

With `Cc1nc(-c2nnn(C)c2CNc2nccc(Oc3ccccc3)n2)ccc1OC[C@@H]1CC[C@H]1C(=O)O` (racemic) [Example 22, (±)-(1R,2R)-2-(((2-methyl-6-(1-methyl-5-(((4-phenoxypyrimidin-2-yl)amino)methyl)-1H-1,2,3-triazol-4-yl)pyridin-3-yl)oxy)methyl)cyclobutane-1-carboxylic acid], the IC50 turned out to be 149 nM.

Consider `COc1cc(OCc2c(-c3ccc(OC[C@@H]4CC[C@H]4C(=O)O)c(C)n3)nnn2C)ncn1` (racemic) [Example 19, (±)-(1R,2R)-2-(((6-(5-(((6-methoxy-pyrimidin-4-yl)oxy)methyl)-1-methyl-1H-1,2,3-triazol-4-yl)-2-methylpyridin-3-yl)oxy)methyl)cyclobutane-1-carboxylic acid], for which the IC50 came to 121 nM.

With `CCc1cc(OCc2c(-c3ccc(OC[C@@H]4CC[C@H]4C(=O)O)c(C)n3)nnn2C)ncn1` (single isomer, unassigned) [Example 12], the IC50 was determined as 77 nM.

`Cc1nc(-c2nnn(C)c2COC(=O)N(C)CC2CCC2)ccc1OC[C@@H]1CC[C@H]1C(=O)O` (single isomer, unassigned) [Example 7]: the IC50 amounted to 26 nM.

As to `Cc1nc(-c2onc(C)c2CNc2nccc(-c3ccccn3)n2)ccc1OC[C@@H]1CC[C@H]1C(=O)O` (racemic) [Example 5, (±)-(1R,2R)-2-(((2-methyl-6-(3-methyl-4-(((4-(pyridin-2-yl)pyrimidin-2-yl)amino)methyl)isoxazol-5-yl)pyridin-3-yl)oxy)methyl)cyclobutane-1-carboxylic acid], the concentration for half-maximal inhibition (IC50) turned out to be 18 nM.

As to `Cc1noc(-c2ccc(OC[C@@H]3CC[C@H]3C(=O)O)cn2)c1CNc1nccc(-c2ccccn2)n1` (racemic) [Example 2, (±)-(1R,2R)-2-(((6-(3-methyl-4-(((4-(pyridin-2-yl)pyrimidin-2-yl)amino)methyl)isoxazol-5-yl)pyridin-3-yl)oxy)methyl)cyclobutane-1-carboxylic acid], the half-inhibitory concentration (IC50) came to 15.4 nM.

Consider `Cc1nc(-c2nnn(C)c2COC(=O)N(C)CC2CCC2)ccc1O[C@H]1C[C@H](C(=O)O)C1` [Example 9, trans-3-((6-(5-((((cyclobutylmethyl)(methyl)carbamoyl)oxy)methyl)-1-methyl-1H-1,2,3-triazol-4-yl)-2-methylpyridin-3-yl)oxy)cyclobutane-1-carboxylic acid], for which the half-maximal inhibitory concentration (IC50) was determined as 278 nM.

For the molecule `Cc1nc(-c2nnn(C)c2COc2cc(C3CC3)ncn2)ccc1OC[C@@H]1CC[C@H]1C(=O)O` (racemic) [Example 18, (±)-(1R,2R)-2-(((6-(5-(((6-cyclopropyl-pyrimidin-4-yl)oxy)methyl)-1-methyl-1H-1,2,3-triazol-4-yl)-2-methylpyridin-3-yl)oxy)methyl)cyclobutane-1-carboxylic acid], the IC50 was determined as 83 nM.

Regarding `Cc1noc(-c2ccc(OCC34CC(C(=O)O)(C3)C4)cc2)c1COC(=O)N(C)C1CCCC1` [Example 53, 3-((4-(4-(((cyclopentyl(methyl)carbamoyl)oxy)methyl)-3-methylisoxazol-5-yl)phenoxy)methyl)bicyclo[1.1.1]pentane-1-carboxylic acid], the concentration for half-maximal inhibition (IC50) came out at 604 nM.

On to `Cc1nc(-c2nnn(C)c2NC(=O)OCC2CC2)ccc1OC[C@H]1CC[C@@H]1C(=O)O` (racemic) [Example 59, (±)-(1S,2S)-2-(((6-(5-(((cyclopropyl-methoxy)carbonyl)amino)-1-methyl-1H-1,2,3-triazol-4-yl)-2-methyl-pyridin-3-yl)oxy)methyl)cyclobutane-1-carboxylic acid], for which the IC50 came to 3590 nM.

As to `Cc1nc(-c2nnn(C)c2COC(=O)N(C)C2CCC2)ccc1OC[C@@H]1CC[C@H]1C(=O)O` (racemic) [Example 48, (±)-(1R,2R)-2-(((6-(5-(((cyclobutyl(methyl)carbamoyl)oxy)methyl)-1-methyl-1H-1,2,3-triazol-4-yl)-2-methylpyridin-3-yl)oxy)methyl)cyclobutanecarboxylic acid], the IC50 amounted to 72 nM.

Consider `CCOc1ccnc(NCc2c(-c3ccc(OC[C@@H]4CC[C@H]4C(=O)O)c(C)n3)nnn2C)n1` (racemic) [Example 21, (±)-(1R,2R)-2-(((6-(5-(((4-ethoxy-pyrimidin-2-yl)amino)methyl)-1-methyl-1H-1,2,3-triazol-4-yl)-2-methylpyridin-3-yl)oxy)methyl)cyclobutane-1-carboxylic acid], for which the IC50 was determined as 24 nM.

Consider `Cc1nc(-c2nnn(C)c2COC(=O)N(C)CC(C)C)ccc1OC[C@@H]1CC[C@H]1C(=O)O` (racemic) [Example 49, (±)-(1R,2R)-2-(((6-(5-(((isobutyl(methyl)carbamoyl)oxy)methyl)-1-methyl-1H-1,2,3-triazol-4-yl)-2-methylpyridin-3-yl)oxy)methyl)cyclobutanecarboxylic acid], for which the concentration for half-maximal inhibition (IC50) came out at 232 nM.

For the molecule `Cc1nc(-c2nnn(C)c2Cn2nnnc2CC2CC2)ccc1OC[C@@H]1CC[C@H]1C(=O)O` (racemic) [Example 37, (±)-(1R,2R)-2-(((6-(5-((5-(Cyclopropylmethyl)-1H-tetrazol-1-yl)methyl)-1-methyl-1H-1,2,3-triazol-4-yl)-2-methylpyridin-3-yl)oxy)methyl)cyclobutane-1-carboxylic acid], the IC50 came to 267 nM.

As for `CCc1cc(OCc2c(-c3ccc(OC[C@H]4CC[C@@H]4C(=O)O)c(C)n3)nnn2C)ncn1` (single isomer, unassigned) [Example 13], the IC50 worked out at 28 nM.

In the case of `Cc1nc(-c2nnn(C)c2CNC(=O)OCCC2CC2)ccc1OC[C@@H]1CC[C@H]1C(=O)O` (racemic) [Example 33, (±)-(1R,2R)-2-(((6-(5-((((2-Cyclopropylethoxy)carbonyl)amino)methyl)-1-methyl-1H-1,2,3-triazol-4-yl)-2-methylpyridin-3-yl)oxy)methyl)cyclobutanecarboxylic acid], the IC50 turned out to be 326 nM.
